How the values were obtained:
[1] = test system: IEC-6 cells; assay: Western blot of PKC zeta, p-GLUT1 and GLUT1 with ingenol, IEC-6 cells; format: cell-based; conditions: ingenol 0.1 μM, vs empty vector negative control
Experimental: (§1) Transfected cell lines were generated by transfection such that PKC zeta was transiently overexpressed in IEC-6 cells, IEC-18 cells, and HEK293 (ATCC CRL-1573) cells. A rat PKC zeta-expressing plasmid (Korea Gene Bank) was subcloned into pCDNA3.1 (Addgene, USA). […] Cells were transfected with the expression plasmid using Polyjet transfection reagent (SignaGen) according to the manufacturer's instructions. Transfected cells were cultured for 48 hours at 37° C. before lysis and treated with ingenol (0.1 μM). Cell lysates were collected for the empty vector-infected cell group as a control group, the PKC zeta-transfected cell group, the wild-type cell group treated with ingenol, and the transfected cell group treated with ingenol, and subjected to Western blotting. In Western blotting, Na/K ATPase was used as a membrane loading control.

[2] = test system: IEC-6 cell line; assay: 2DG uptake after PKC siRNA transfection; format: cell-based; conditions: prostratin 1 μM or ingenol 100 nM
Experimental: In order to identify which PKC subtypes induce increased glucose uptake (2DG uptake) in IEC cells by treatment with each of prostratin and ingenol, the IEC-6 cell line was transfected with siRNA for each of conventional PKC (PKCα), novel PKC ([…]), and atypical PKCs (PKCζ and […]) as described in Example 7. After 48 hours, the cells were treated with prostratin (1 μM) or ingenol (100 nM), and 2DG uptake therein was analyzed.

[3] = test system: IEC-6 cells; assay: Intracellular glucose (2-DG) uptake, IEC-6 cells; format: cell-based; conditions: 100 nM
Experimental: (§2) IEC-6 cells and IEC-18 cells were treated with each of prostratin and ingenol (100 nM) for 10 minutes, and then uptake of 2-deoxy-D-glucose (2-DG) in the collected cell lysates was analyzed. By measuring the glucose concentration, changes in glucose uptake (2-DG uptake) by treatment with each of prostratin and ingenol were determined. The amount of glucose was measured after treatment with each of prostratin and ingenol in a low-concentration glucose medium and serum-free DMEM for 24 hours. Glucose levels in the IEC-6 and IEC-18 cells were detected using a Glucose Assay Kit (Cayman Chemical) according to the manufacturer's instructions. Absorbance signals were measured with a Gen5 spectrophotometer (BioTek, Winooski, VT, USA).

[4] = test system: IEC-6 cells; assay: Glucose uptake with and without PKC zeta inhibitor ZIP, IEC-6 cells; format: cell-based; conditions: 100 nM
[5] = test system: C57BL6 mice; assay: IP glucose tolerance test after single subcutaneous injection; format: in vivo; conditions: 2 g/kg glucose
Experimental: After 12 C57BL6 mice were fasted for 12 hours, fasting blood glucose was measured by performing an intraperitoneal glucose test. Thereafter, ingenol (4 μg/kg) and prostratin (1 mg/kg) was injected subcutaneously once into the ingenol-administered group (4 mice) and the prostratin-administered group, respectively, and 2 g of glucose per kg of mouse (2 g/kg glucose) was diluted in physiological saline and intraperitoneally administered to each mouse. Thereafter, an IP glucose tolerance test was performed at 15 minutes, 30 minutes, 60 minutes, 90 minutes, and 120 minutes.

[6] = test system: HEK293; assay: Western blot of PKC zeta, p-GLUT1 and GLUT1 with ingenol, HEK293 cells; format: cell-based; conditions: vs empty vector negative control
Experimental: as §1

[7] = test system: IEC-18 cells; assay: Western blot of GLUT transporters after treatment, IEC-18 cells; format: cell-based; conditions: for GLUT1 phosphorylation: 30, 100 and 300 nM, 30 minutes, Western blot; for expression of p-GLUT1 and GLUT1: compared to Na/K ATPase
Experimental: (§3) For culture of IEC-6 cells (ATCC CRL-1592) and IEC-18 cells (ATCC CRL-1589), which are intestinal epithelial cells, the cells were cultured using Dulbecco's modified Eagle medium (DMEM) supplemented with 10% fetal bovine serum (FBS) and penicillin-streptomycin at 37° C. in a humidified atmosphere containing 10% CO2 and 90% air, and were subcultured every 3 to 4 days. […] When the cell density reached 1.5×10^5 cells/cm^2 after 6 days, the cultures were collected and used. Prostratin was purchased from Sigma-Aldrich (Cat. No. P0077) and used. Ingenol was purchased from Sigma-Aldrich (Cat. No. SML1318) and used. IEC-6 cells and IEC-18 cells were treated with each of prostratin and ingenol at 30 nM, 100 nM, and 300 nM for 30 minutes, cell lysates were collected, and protein expression levels thereof were analyzed by Western blotting. Western blot analysis was performed as follows. Total cell protein lysates were prepared and subjected to Western blot analysis according to standard procedures. Briefly, cells were chilled on ice, washed twice with ice-cold phosphate-buffered saline, and lysed in buffer containing 1 mM. phenylmethylsulfonyl fluoride and lx protease inhibitor (Sigma-Aldrich). Protein concentration was measured with a Bradford assay kit (Bio-Rad, Hercules, CA, USA). Equal amounts of protein from the cell lysates were resolved by sodium dodecyl sulfate polyacrylamide gel electrophoresis and transferred to membranes which were then incubated with anti-PKCα (Cell Signaling Technology, USA), anti-PKCδ (Cell Signaling Technology, USA), anti-PKCζ (Cell Signaling Technology, USA), anti-p-GLUT1 (Abcam, GB), anti-GLUT1 (Abcam, GB) and anti-GLUT2 (Novus Biological, USA) as primary antibodies overnight at 4° C. The blots were washed 3 times with TBST (Tris-buffered saline containing 0.05% Tween 20) and then incubated with horseradish peroxidase (HRP)-conjugated secondary antibodies for 1 hour at 25° C. As the secondary antibodies, donkey anti-rabbit IgG-HRP antibody (1:5000, Santa Cruz) and donkey anti-mouse IgG-HRP antibody (1:5000, Santa Cruz) were used. Immunoreactivity was detected with SuperSignal West Pico Chemiluminescent Substrate (Thermo Fisher Scientific, MA, USA).

[8] = test system: db/db mice; assay: Intraperitoneal glucose tolerance test (IPGTT) in diabetic model mice on day 17; format: in vivo
Experimental: Each of prostratin (0.5 mg/kg) and ingenol (1 μg/kg) was intraperitoneally injected daily for 40 days into db/db mice (Jackson Laboratory), known as a representative diabetes model due to deficiency of the leptin receptor, and then the body weight of each mouse was measured. On day 17 after drug administration, an intraperitoneal glucose tolerance test (IPGTT) was performed. […] In the group to which 1 μg/kg of ingenol was administered, the glucose improvement effect appeared at 240 minutes after glucose administration.

[9] = test system: db/db mice; assay: Body weight in diabetic model mice, daily intraperitoneal injection for 40 days; format: in vivo
Experimental: Each of prostratin (0.5 mg/kg) and ingenol (1 μg/kg) was intraperitoneally injected daily for 40 days into db/db mice (Jackson Laboratory), known as a representative diabetes model due to deficiency of the leptin receptor, and then the body weight of each mouse was measured.

[10] = test system: IEC-18 cells; assay: Western blot of PKC and GLUT1 activation over time, IEC-18 cells; format: cell-based; conditions: prostratin 2 μM; for activities of PKC zeta and GLUT1: ingenol 0.1 μM, 0, 15 and 60 minutes
Experimental: After treatment of IEC-18 cells with each of prostratin (2 μM) and ingenol (0.1 μM) for 0, 15, and 60 minutes, the expression of PKC and GLUT1 proteins was analyzed by Western blotting.

[11] = test system: IEC-18 cells; assay: Western blot of PKC zeta, p-GLUT1 and GLUT1 with ingenol, IEC-18 cells; format: cell-based; conditions: ingenol 0.1 μM, vs empty vector negative control
Experimental: as §1

[12] = test system: IEC-18 cells; assay: Glucose uptake with and without PKC zeta inhibitor ZIP, IEC-18 cells; format: cell-based; conditions: 100 nM
[13] = test system: IEC-18 cells; assay: Intracellular glucose (2-DG) uptake, IEC-18 cells; format: cell-based; conditions: 100 nM
Experimental: as §2

[14] = test system: IEC-6 cells; assay: Western blot of GLUT transporters after treatment, IEC-6 cells; format: cell-based; conditions: for GLUT1 phosphorylation: 30, 100 and 300 nM, 30 minutes, Western blot; for expression of p-GLUT1 and GLUT1: compared to Na/K ATPase
Experimental: as §3

[15] = test system: db/db mice; assay: Electron microscopy of apical membrane of jejunum lumen of diabetic model mice; format: in vivo; conditions: 0.5 mg/kg for 1 month, electron microscope
[16] = test system: C57BL6 mice; assay: IP glucose tolerance test after 2 weeks of administration by osmotic pump; format: in vivo; conditions: 0.5 mg/kg and 1 mg/kg for 2 weeks, 2 g/kg glucose
Experimental: Prostratin was administered to C57BL6 mice at concentrations of 0 mg/kg, 0.5 mg/kg, and 1 mg/kg for 2 weeks using an osmotic pump, followed by fasting for 12 hours. Then, 2 g of glucose per kg of mouse (2 g/kg glucose) was diluted in physiological saline and intraperitoneally administered to each mouse. Thereafter, an IP glucose tolerance test was performed at 15 minutes, 30 minutes, 60 minutes, 90 minutes, and 120 minutes.

[17] = test system: db/db mice; assay: 18FDG absorption and excretion in intestines of diabetic model mice; format: in vivo; conditions: 0.5 mg/kg for 1 month
Experimental: The intestines of db/db mice (Jackson Laboratory) to which 0.5 mg/kg of prostratin had been administered for 1 month were harvested and radiographed for 18FDG (fluorodeoxyglucose, DuChemBio). 18FDG was purchased from DuChemBio and 200 μCi was injected into each mouse via the tail vein. In addition, 18FDG in a fecal sample obtained by washing the harvested small intestine with 5 mL of PBS was measured, and 18FDG uptake of the duodenum, jejunum, and ileum of the small intestine was measured with a gamma counter.

[18] = test system: IEC-6 cell line; assay: Western blot of p-GLUT1 after PKC siRNA transfection and prostratin treatment; format: cell-based; conditions: prostratin 1 μM
Experimental: To identify which PKC subtypes induce GLUT1 activation by each of prostratin and ingenol, the IEC-6 cell line was transfected with 50 nM of siRNA for each of conventional PKC (PKCα), novel PKC ([…]), and atypical PKCs (PKCζ and […]) using RNAiMax (Invitrogen). After 48 hours, the cells were treated with prostratin (1 μM), and total protein was extracted and subjected to Western blotting. The siRNA sequences used are as follows.

[19] = test system: db/db mice; assay: Immunohistochemical staining of PKC zeta in small intestine of diabetic model mice; format: in vivo; conditions: 0.5 mg/kg for 1 month
Experimental: After administration of prostratin (0.5 mg/kg) or vehicle to db/db mice for 1 month, the small intestine was harvested, and the duodenum, jejunum, and ileum were fixed with formalin, subjected to immunohistochemical staining with anti-PKC zeta antibody (Abcam, USA), and imaged with an optical microscope at 100× and 400× magnifications.

[20] = test system: human pancreatic tumors; conditions: orally administered; cited from earlier work
[21] = atypical PKC (PKCζ and PKC↓)-knockdown group

For `C/C=C(/C)C(=O)O[C@H]1C(C)=C[C@]23C(=O)[C@@H](C=C(CO)[C@@H](O)[C@]12O)[C@H]1[C@@H](C[C@H]3C)C1(C)C` [ingenol-3-angelate], the GLUT1 translocation [1] was “translocated”, the “PKC zeta activation and translocation to the cell membrane” value (from here on “PKC zeta activation and translocation”) [1] was “activated and translocated to the cell membrane” and the 2DG uptake [2, 21] was “not increased”. The 2DG uptake ([2]; negative control group (siNeg)) was “increased”, the “intracellular glucose (2-DG) uptake” value [3] was “increased” and the “6-phosphate glucose in the cells” value [4] was “increased”. For the same compound, the “glucose metabolism (IP glucose tolerance test) compared to negative control” value ([5]; ingenol 4 μg/kg subcutaneously once) was “improved”, the GLUT1 translocation [6] was “translocated” and the “PKC zeta activation and translocation” value [6] was “activated and translocated to the cell membrane”. The GLUT1 phosphorylation [7] was “promoted”, the “expression of p-GLUT1 and GLUT1” value [7] was “increased” and the “glucose improvement effect (IPGTT)” value ([8]; ingenol 1 μg/kg, at 240 minutes after glucose administration) was “appeared”. The weight loss ([9]; ingenol 1 μg/kg i.p. daily, increased to 2 μg/kg on day 28, day 30) was “showed statistical significance”, the “activities of PKC zeta and GLUT1” value [10] was “increased” and the GLUT1 translocation [11] was “translocated”. The “PKC zeta activation and translocation” value [11] was “activated and translocated to the cell membrane”, the “6-phosphate glucose in the cells” value [12] was “increased” and the “intracellular glucose (2-DG) uptake” value [13] was “increased”. The GLUT1 phosphorylation [14] was “promoted” and the “expression of p-GLUT1 and GLUT1” value [14] was “increased”.
With `CC(=O)O[C@@]12C[C@@H](C)[C@@]3(O)[C@@H](C=C(CO)C[C@]4(O)C(=O)C(C)=C[C@@H]34)[C@@H]1C2(C)C` [prostratin] the “glycocalyx near the microvilli of the jejunum vs vehicle” value [15] was “secreted more”, the “number of mitochondria in the small intestine cells” value [15] was “increased” and the 2DG uptake [2, 21] was “not increased”. The 2DG uptake ([2]; negative control group (siNeg)) was “increased”, the “area values under the glucose change curve for 2 hours” value [16] was “improved” and the “intracellular glucose (2-DG) uptake” value [3] was “increased”. For the same compound, the “6-phosphate glucose in the cells” value [4] was “increased”, the “glucose metabolism (IP glucose tolerance test) compared to Vehicle” value ([5]; prostratin 1 mg/kg subcutaneously once, at 30 and 60 minutes) was “significantly improved” and the GLUT1 phosphorylation [7] was “promoted”. For the same compound, the “expression of p-GLUT1 and GLUT1” value [7] was “increased”, the “glucose absorption in duodenum, jejunum and ileum (18FDG, gamma counter)” value [17] was “more than doubled” and the “glucose absorption in the small intestine (18FDG radiographs) vs vehicle group” value [17] was “significantly higher”. The “glucose excretion in the fecal samples (18FDG)” value [17] was “higher”, the “glucose improvement (IPGTT) vs vehicle group” value ([8]; prostratin 0.5 mg/kg, entire period of 30 to 240 minutes) was “superior to that in the control group” and the “weight loss compared to vehicle group” value ([9]; prostratin 0.5 mg/kg i.p. daily, on and after day 11) was “showed statistical significance”. The “expression of GLUT1 (p-GLUT1)” value ([18]; negative control group (siNeg)) was “increased”, the “expression of GLUT1 (p-GLUT1)” value ([18]; siRNA for atypical PKCs (PKCζ and PKC↓)) was “did not increase” and the “translocation of PKC and GLUT1 to the cell membrane, prostratin compared with ingenol” value ([10]; ingenol 0.1 μM) was “more rapidly translocated”. The “activities of PKC zeta and GLUT1” value [10] was “increased”, the “PKC zeta staining in the duodenum vs vehicle” value [19] was “no significant difference” and the “location of PKC zeta in the jejunum and ileum” value [19] was “tended to be concentrated in the apical membrane of the lumen”. For the same compound, the “6-phosphate glucose in the cells” value [12] was “increased”, the “intracellular glucose (2-DG) uptake” value [13] was “increased” and the “effect on human pancreatic tumors” value [20] was “inhibited”. For the same compound, the GLUT1 phosphorylation [14] was “promoted” and the “expression of p-GLUT1 and GLUT1” value [14] was “increased”.

Reference: patent US20240058291A1, “COMPOSITION FOR CONTROLLING SUGAR, CONTAINING ATYPICAL PKC ACTIVATOR” (INDUSTRY-ACADEMIC COOPERATION FOUNDATION, YONSEI UNIVERSITY, priority 2021, published 2024)
